Each structure is given as a SMILES string.

In the assay the target is T1, dihydrooroate dehydrogenase (Homo sapiens, UniProt Q02127).
T1 construct: ultracentrifugation at 4° C. and 120,000×g for 60 minutes afforded a mitochondrial/microsomal fraction; endogenous in cells; host or cells: U-937 (human histiocytic lymphoma cell line), mitochondrial/microsomal fraction
T1 sequence (Q02127 whole entry): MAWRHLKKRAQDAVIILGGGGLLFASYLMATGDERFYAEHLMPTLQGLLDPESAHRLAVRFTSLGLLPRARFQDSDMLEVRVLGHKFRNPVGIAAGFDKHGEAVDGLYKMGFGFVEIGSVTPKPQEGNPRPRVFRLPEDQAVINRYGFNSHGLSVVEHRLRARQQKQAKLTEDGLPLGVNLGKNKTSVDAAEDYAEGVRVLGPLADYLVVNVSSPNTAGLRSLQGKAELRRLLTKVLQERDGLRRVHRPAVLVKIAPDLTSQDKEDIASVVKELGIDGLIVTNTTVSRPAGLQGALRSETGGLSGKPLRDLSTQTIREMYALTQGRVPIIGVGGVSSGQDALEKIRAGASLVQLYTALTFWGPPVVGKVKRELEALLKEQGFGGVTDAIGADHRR
Nature of the assay: dihydroorotate dehydrogenase inhibition, U-937 mitochondrial/microsomal fraction, DCIP absorbance at 620 nm. To be noted: DHODH of human U-937 cell mitochondrial/microsomal fraction; 37° C., 120 minutes. In kind it is biochemical. How it is done: Method of Testing dihydrooroate dehydrogenase Inhibition
Human U-937 cell (human histiocytic lymphoma cell line) was sonicated in a homogenizing buffer (20 mM Tris-HC1, pH 7.4, containing 2 mM EDTA and protease inhibitor cocktail), and this was centrifuged at 4° C. and 1,200×g for 15 minutes to remove cell debris. Further, ultracentrifugation at 4° C. and 120,000×g for 60 minutes afforded a mitochondrial/microsomal fraction. The resulting fraction was quantitated for a protein, and prepared to 10 mg/ml, which was freezing-stored in a −40° C. in a refrigerator until measurement. To 150 μl of the reaction solution (50 mM Tris-HC1, pH 7.4, containing 0.1% Triton X-100, 1 mM KCN, 100 μM coenzyme Q10, 200 μM DCIP), were added 10 μl of a dilution series of the compound and 0.2 mg of a mitochondrial/microsomal fraction, followed by pre-incubation at 37° C. for 30 minutes. Then, 20 μl of a 5 mM DHO solution (final concentration […]), which is a substrate, was added, this was incubated at 37° C. for 120 minutes, and an absorbance at a measurement wavelength of 620 nm was measured. A rate of suppression of a compound at each concentration relative to a change in an absorbance due to the enzyme reaction was obtained, and a concentration indicating 50% inhibition (IC50 value) was calculated to assess the inhibition activity of the compound.
With `C/C(=C\c1c(C)c(C)c(-c2ccc(NCc3ccco3)cc2)c(C)c1C)C(=O)NC(C)C` [Compound 418], the IC50 (usually the point on the concentration scale where inhibition reaches its midpoint) was 2.79 nM.

Consider `C/C(=C\c1c(C)c(C)c(-c2ccc(NC(C)C)cc2F)c(C)c1C)C(=O)NS(=O)(=O)c1ccccc1` [Compound 422], for which the IC50 was 6.49 nM.

Regarding `C/C(=C\c1c(C)c(C)c(-c2ccc(NC(C)C)cc2)c(C)c1C)C(=O)NC1CC1` [Compound 424], half-maximal inhibition (IC50) required 2.56 nM.

Regarding `C/C(=C\c1c(C)c(C)c(-c2ccc(NCc3ccco3)cc2)c(C)c1C)C(=O)NC1CC1` [Compound 425], half-maximal inhibition (IC50) was put at 0.91 nM.

`C/C(=C\c1c(C)c(C)c(-c2ccc(NC3CCCC3)cc2)c(C)c1C)C(=O)NC1CC1` [Compound 426] gave an IC50 of 1.01 nM.

For the compound `C/C(=C\c1c(C)c(C)c(-c2ccc3[nH]ccc3c2)c(C)c1C)C(=O)NC(C)C` [Compound 427], the IC50 is 13.1 nM.

Compound `C/C(=C\c1c(C)c(C)c(-c2ccc(NC(C)C)cc2)c(C)c1C)C(=O)NC1CCCC1` [Compound 434] had an IC50 of 2.39 nM.

For the compound `C/C(=C\c1c(C)c(C)c(-c2ccc(NC3CCCC3)cc2)c(C)c1C)C(=O)NC1CCCC1` [Compound 463], the IC50 is 9.22 nM.

The compound `C/C(=C\c1c(C)c(F)c(-c2ccc(NC(C)C)cc2)c(C)c1F)C(=O)NC1CC1` [Compound 488] gave an IC50 of 10 nM.

On to `Cc1c(F)c(-c2ccc(NC3CCCC3)cc2)c(C)c(F)c1/C=C(\F)C(=O)NC(C)C` [Compound 518], for which inhibition was half-maximal at 7.2 nM (IC50).

`COc1c(C)c(-c2ccc(NC(C)C)cc2)c(OC)c(C)c1/C=C(\C)C(=O)NC1CCCC1` [Compound 528]: the midpoint of inhibition, the IC50, lay at 3.33 nM.

`CC/C(=C\c1c(C)c(OC)c(-c2ccc(NC(C)C)cc2)c(C)c1OC)C(=O)NC(C)C` [Compound 530] gave an IC50 of 9.8 nM. Compared with the last compound, the IC50 is about 2.9-fold higher.

In turn, `COc1c(C)c(-c2ccc(NC3CCCC3)cc2)c(OC)c(C)c1/C=C(\C)C(=O)NC1CCCC1` [Compound 536] gave an IC50 of 8.39 nM.

`COc1c(C)c(-c2ccc(NCC=C(C)C)cc2)c(OC)c(C)c1/C=C(\C)C(=O)NC(C)C` [Compound 574]: the midpoint of inhibition, the IC50, lay at 9.32 nM. This IC50 and that of the compound before are within 1.5-fold of each other.

Take `COc1c(C)c(-c2ccc(NCC=C(C)C)cc2)c(OC)c(C)c1/C=C(\C)C(=O)NC1CCCC1` [Compound 575]: the IC50 is 9.65 nM.
